In US20110028566A1, “COMPOSITIONS AND PRODUCTS CONTAINING CYCLOALIPHATIC DIOL ANTIMICROBIAL AGENTS AND METHODS OF USING THE COMPOSITIONS AND PRODUCTS” (EASTMAN CHEMICAL COMPANY, priority 2009, published 2011):

How the values were obtained:
Test in all cases: Microbial challenge testing in BPW
Format in all cases: cell-based
[1] = system: Burkholderia cepacia; settings: BPW, w/v % in label, average of replicates; for Grade code, B. cepacia, 14 Days: 14 days incubation; for Grade code, B. cepacia, 30 Days: 30 days incubation
Description: (§1) The microorganisms used in challenge tests are given in Table 3, designated as either ATCC (American Type Culture Collection) or wild type. These wild type organisms were problematic organisms previously isolated from chemical products. In the description for each organism, the bacteria are indicated as either GN (Gram negative) or GP (Gram positive).
(§2) All of the microorganisms were grown in Tryptose Soy Broth (TSB), DIFCO™ available from Becton, Dickinson and Company, containing 1% dextrose. Aspergillus niger and Candida albicans were incubated at 22° C.±2° C. for at least 96 hours. All bacteria were incubated at 35° C.±2° C. in a humidified incubator for at least 96 hours.
(§3) The following procedure was followed to determine the amount of each challenge material (inoculum broth) required to produce a 10^8 cfu/mL challenge, which is equivalent to a final test-sample microbial concentration of 10^5 to 10^6 cfu (colony-forming units)/mL.
(§4) Using a sterile serological pipette, 1 mL of the growth from each TSB culture was transferred into tubes containing 9 mL phosphate buffer (pH 7.2) and mixed thoroughly. This process was repeated to make serial 1:10 dilutions. Then 0.1 mL of each sample and dilution was inoculated onto agar plates to produce the equivalent of a further 1:10 dilution. C. albicans and A. niger were inoculated onto SDA and bacteria were inoculated onto Plate Count Agar (PCA), DIFCO™ available from Becton, Dickinson and Company. The 0.1 mL aliquots were evenly distributed on the plates using the spread-plate technique. The spread-plate technique is performed by spreading the aliquot over the entire plate surface using a sterile spreading rod while rotating the plate with a rotary auto-plater. After the inoculum was absorbed completely, each plate was inverted and incubated (fungi at 22° C.±2° C. and bacteria at 35° C.±2° C.).
(§5) After incubation for at least 48 hours, colonies that had developed on the agar plates were counted and recorded with the corresponding dilution. If counting had to be delayed temporarily, plates were refrigerated, preferably no more than 24 hours, until they could be counted. The number of cfu/mL was determined by multiplying the count by the dilution factor for that particular plate.
(§6) Turbidity in Nepholemetric Turbidity Units (NTU) was measured for each serial dilution using the HF-Micro 100 Model Turbidimeter. For each microorganism, the plate counts were compared to the turbidity readings.
(§7) Control substrates (“broth alone”) were prepared for each microorganism separately in triplicate by adding 13.5 mL of BPW (pH 7.0) containing 1% (w/v) dextrose to each 20-mL glass tube; then adding 1.5 mL challenge material to produce a final concentration at time zero of 10^5 to 10^6 cfu/mL and a total volume of 15 mL.
(§8) Test sample substrates were prepared containing each test material (1,4-CHDM, etc) or combination of test materials at the concentrations shown in Tables 5 and 6. Sample substrates were prepared in triplicate, except those substrates containing PE or CG which were prepared in duplicate. Substrates were prepared by adding BPW containing 1% (w/v) dextrose to each 20-mL glass tube, then adding the test material in the amount appropriate to achieve the desired weight/volume percent (g/100 mL) and to obtain a total volume of BPW with dextrose and test material of 13.5 mL. Then 1.5 mL challenge material was added to produce a final concentration at time zero of 10^5 to 10^6 cfu/mL of the respective organism and a total test sample substrate volume of 15 mL.
(§9) After mixing, all challenged substrates were incubated at 35° C.±2° C. for 14 days and then at ambient room temperature.

[2] = system: Aeromonas sp.; settings: for Grade code, Aeromonas sp, 3 Days / Grade code, Aeromonas sp, 14 Days / Grade code, Aeromonas sp, 30 Days: BPW, w/v % in label, average of replicates
Description: as §1, §2, §3, §4, §5, §6, §7, §8, §9

[3] = system: Staphylococcus aureus; settings: for Grade code, S. aureus, 3 Day / Grade code, S. aureus, 14 Day / Grade code, S. aureus, 30 Day: BPW, w/v % in label, average of replicates
Description: as §1, §2, §3, §4, §5, §6, §7, §8, §9

[4] = 3 days incubation, listed as 0.5% AB
[5] = 3 days incubation, listed as 1.25% AB
[6] = 3 days incubation, listed as 2.5% AB
[7] = 14 days incubation, listed as 0.5% AB
[8] = 14 days incubation, listed as 1.25% AB
[9] = 14 days incubation, listed as 2.5% AB
[10] = 30 days incubation, listed as 0.5% AB
[11] = 30 days incubation, listed as 1.25% AB
[12] = 30 days incubation, listed as 2.5% AB

Structure (SMILES): OCC1CCC(CO)CC1 (centres unmarked) [1,4-CHDM, 1,4-cyclohexanedimethanol]
- Grade code, B. cepacia, 14 Days ([1]; listed as 1.25% AB): 2 (52 to 100 colonies counted (thus 520 to 1000 cfu/mL))
- Grade code, B. cepacia, 14 Days ([1]; listed as 2.5% AB): 0 (No growth detected or <1 colony (thus <10 cfu/mL))
- Grade code, B. cepacia, 30 Days ([1]; listed as 0.5% AB): 4 (1001 to 10,000 colonies (thus 10,000 cfu/mL to 100,000 cfu/mL))
- Grade code, B. cepacia, 30 Days ([1]; listed as 1.25% AB): 4 (1001 to 10,000 colonies (thus 10,000 cfu/mL to 100,000 cfu/mL))
- Grade code, B. cepacia, 30 Days ([1]; listed as 2.5% AB): 0 (No growth detected or <1 colony (thus <10 cfu/mL))
- Grade code Aeromonas sp ([2]; 0.5%, 3 days incubation): 5 (More than 10,000 colonies estimated (thus >100,000 cfu/mL))
- Grade code Aeromonas sp ([2]; 0.5%, 14 days incubation): 4 (1001 to 10,000 colonies (thus 10,000 cfu/mL to 100,000 cfu/mL))
- Grade code Aeromonas sp ([2]; 0.5%, 30 days incubation): 4 (1001 to 10,000 colonies (thus 10,000 cfu/mL to 100,000 cfu/mL))
- Grade code Aeromonas sp ([2]; 1.25%, 3 days incubation): 4 (1001 to 10,000 colonies (thus 10,000 cfu/mL to 100,000 cfu/mL))
- Grade code Aeromonas sp ([2]; 1.25%, 14 days incubation): 3 (101 to 1000 colonies (thus 1000 to 10,000 cfu/mL))
- Grade code Aeromonas sp ([2]; 1.25%, 30 days incubation): 2 (52 to 100 colonies counted (thus 520 to 1000 cfu/mL))
- Grade code Aeromonas sp ([2]; 2.5%, 3 days incubation): 3 (101 to 1000 colonies (thus 1000 to 10,000 cfu/mL))
- Grade code Aeromonas sp ([2]; 2.5%, 14 days incubation): 1 (1 to 51 colonies counted (thus 10 to 510 cfu/mL))
- Grade code Aeromonas sp ([2]; 2.5%, 30 days incubation): 0 (No growth detected or <1 colony (thus <10 cfu/mL))
- Grade code, Aeromonas sp, 3 Days [2, 4]: 5 (More than 10,000 colonies estimated (thus >100,000 cfu/mL))
- Grade code, Aeromonas sp, 3 Days [2, 5]: 4 (1001 to 10,000 colonies (thus 10,000 cfu/mL to 100,000 cfu/mL))
- Grade code, Aeromonas sp, 3 Days [2, 6]: 3 (101 to 1000 colonies (thus 1000 to 10,000 cfu/mL))
- Grade code, Aeromonas sp, 14 Days [2, 7]: 4 (1001 to 10,000 colonies (thus 10,000 cfu/mL to 100,000 cfu/mL))
- Grade code, Aeromonas sp, 14 Days [2, 8]: 3 (101 to 1000 colonies (thus 1000 to 10,000 cfu/mL))
- Grade code, Aeromonas sp, 14 Days [2, 9]: 1 (1 to 51 colonies counted (thus 10 to 510 cfu/mL))
- Grade code, Aeromonas sp, 30 Days [2, 10]: 4 (1001 to 10,000 colonies (thus 10,000 cfu/mL to 100,000 cfu/mL))
- Grade code, Aeromonas sp, 30 Days [2, 11]: 2 (52 to 100 colonies counted (thus 520 to 1000 cfu/mL))
- Grade code, Aeromonas sp, 30 Days [2, 12]: 0 (No growth detected or <1 colony (thus <10 cfu/mL))
- Grade code S. aureus ([3]; 0.5%, 3 days incubation): 4 (1001 to 10,000 colonies (thus 10,000 cfu/mL to 100,000 cfu/mL))
- Grade code S. aureus ([3]; 0.5%, 14 days incubation): 4 (1001 to 10,000 colonies (thus 10,000 cfu/mL to 100,000 cfu/mL))
- Grade code S. aureus ([3]; 0.5%, 30 days incubation): 4 (1001 to 10,000 colonies (thus 10,000 cfu/mL to 100,000 cfu/mL))
- Grade code S. aureus ([3]; 1.25%, 3 days incubation): 3 (101 to 1000 colonies (thus 1000 to 10,000 cfu/mL))
- Grade code S. aureus ([3]; 1.25%, 14 days incubation): 2.7
- Grade code S. aureus ([3]; 1.25%, 30 days incubation): 4 (1001 to 10,000 colonies (thus 10,000 cfu/mL to 100,000 cfu/mL))
- Grade code S. aureus ([3]; 2.5%, 3 days incubation): 1.7
- Grade code S. aureus ([3]; 2.5%, 14 days incubation): 1 (1 to 51 colonies counted (thus 10 to 510 cfu/mL))
- Grade code S. aureus ([3]; 2.5%, 30 days incubation): 0 (No growth detected or <1 colony (thus <10 cfu/mL))
- Grade code, S. aureus, 3 Day [3, 4]: 4 (1001 to 10,000 colonies (thus 10,000 cfu/mL to 100,000 cfu/mL))
- Grade code, S. aureus, 3 Day [3, 5]: 3 (101 to 1000 colonies (thus 1000 to 10,000 cfu/mL))
- Grade code, S. aureus, 3 Day [3, 6]: 1.7
- Grade code, S. aureus, 14 Day [3, 7]: 4 (1001 to 10,000 colonies (thus 10,000 cfu/mL to 100,000 cfu/mL))
- Grade code, S. aureus, 14 Day [3, 8]: 2.7
- Grade code, S. aureus, 14 Day [3, 9]: 1 (1 to 51 colonies counted (thus 10 to 510 cfu/mL))
- Grade code, S. aureus, 30 Day [3, 10]: 4 (1001 to 10,000 colonies (thus 10,000 cfu/mL to 100,000 cfu/mL))
- Grade code, S. aureus, 30 Day [3, 11]: 4 (1001 to 10,000 colonies (thus 10,000 cfu/mL to 100,000 cfu/mL))
- Grade code, S. aureus, 30 Day [3, 12]: 0 (No growth detected or <1 colony (thus <10 cfu/mL))
